IC50 and EC50 data for 23 compounds are collected here from US12338220B2, “Antiviral pyrazolopiridinone compounds” (Novartis AG, priority 2019, dated 2025).

In one assay the target is CMV-polymerase (Human cytomegalovirus (strain AD169) (HHV-5) (Human herpesvirus 5), UniProt P08546). The experiment in a line: biochemical.
The test system of the next assay is CMV. As to the kind of experiment: microbe, parasite or virus in culture. It counts as cell-based. To be noted: Human betaherpesvirus 5, 72 h, read-out: CMV-Luc Cellular EC50, NN-NHDF cells, MOI 1, 72 hrs.
The mark [1] stands for this setting: CMV-polymerase Biochemical IC50.
Where [2] appears, read: read-out: CMV-polymerase Biochemical IC50.

For orientation: IC50 means the concentration needed to halve the response being measured. As a reminder, the EC50 is the concentration needed to bring the measured effect to its halfway point.

Like-named read-outs stand apart in the source and are kept apart here.

In turn, `Cn1nc(C2=NOC(c3ccc(C#N)cc3)C2)c2c1C(=O)N(CC1(S(=O)(=O)C3CC3)CC1)CC2` (stereo not shown) [Example 31, 4-(3-(6-((1-(Cyclopropylsulfonyl)cyclopropyl)methyl)-1-methyl-7-oxo-4,5,6,7-tetrahydro-1H-pyrazolo[3,4-c]pyridin-3-yl)-4,5-dihydroisoxazol-5-yl)benzonitrile] had an IC50 on CMV-polymerase (setting [1]) of 0.012 µM. Also, in the assay on CMV, the concentration giving a half-maximal response (EC50) was 0.101 µM.
The like results for `CC1(C)CNCCOCCn2nc(C(=O)NCc3ccc(C#N)cc3)c3c2C(=O)N(CC3)CC2(CC2)S1(=O)=O` [Example 242, amine macrocycle N-(4-cyanobenzyl)carboxamide] were, in that order, 0.006 µM and 0.101 µM.
Consider `Cn1nc(-c2nnn(Cc3ccc(C#N)cc3)n2)c2c1C(=O)N(CC1(S(=O)(=O)C3CC3)CC1)CC2` [Example 29, 4-((5-(6-((1-(Cyclopropylsulfonyl)cyclopropyl)methyl)-1-methyl-7-oxo-4,5,6,7-tetrahydro-1H-pyrazolo[3,4-c]pyridin-3-yl)-2H-tetrazol-2-yl)methyl)benzonitrile], for which, at CMV-polymerase (setting [2]), the IC50 worked out at 0.001 µM. Moreover, the half-maximal effective concentration (EC50) with CMV worked out at 0.08 µM.
The like results for `Cn1nc(C(=O)NCc2ccc(Cl)nc2)c2c1C(=O)N(CC1(S(=O)(=O)C(C)(C)CO)CC1)CC2` [Example 51, N-((6-Chloropyridin-3-yl)methyl)-6-((1-((1-hydroxy-2-methylpropan-2-yl)sulfonyl)cyclopropyl)methyl)-1-methyl-7-oxo-4,5,6,7-tetrahydro-1H-pyrazolo[3,4-c]pyridine-3-carboxamide] were, in that order, 0.006 µM and 0.172 µM.
Turning to `Cn1nc(-c2nnc(Cc3ccc(C#N)cc3)o2)c2c1C(=O)N(CC1(S(=O)(=O)C3CC3)CC1)CC2` [Example 26, 4-((5-(6-((1-(Cyclopropylsulfonyl)cyclopropyl)methyl)-1-methyl-7-oxo-4,5,6,7-tetrahydro-1H-pyrazolo[3,4-c]pyridin-3-yl)-1,3,4-oxadiazol-2-yl)methyl)benzonitrile], half-maximal inhibition at CMV-polymerase (setting [1]) (IC50) required 0.052 µM. The EC50 in the assay on CMV was 0.761 µM.
Take `Cn1nc(C(=O)NCc2ccc(C#N)cc2)c2c1C(=O)N(CC1(S(=O)(=O)C3(CCO)CC3)CC1)CC2` [Example 117, N-(4-Cyanobenzyl)-6-((1-((1-(2-hydroxyethyl)cyclopropyl)sulfonyl)cyclopropyl)methyl)-1-methyl-7-oxo-4,5,6,7-tetrahydro-1H-pyrazolo[3,4-c]pyridine-3-carboxamide]: the half-inhibitory concentration (IC50) at CMV-polymerase (setting [2]) was 0.004 µM. Moreover, the concentration for a half-maximal effect (EC50) in the assay with CMV turned out to be 0.035 µM.
The like results for `Cn1nc(C(=O)NCc2ccc(Cl)cc2)c2c1C(=O)N(CC1(S(C)(=O)=O)CC1)CC2` [Example 22, N-(4-Chlorobenzyl)-1-methyl-6-((1-(methylsulfonyl)cyclopropyl)methyl)-7-oxo-4,5,6,7-tetrahydro-1H-pyrazolo[3,4-c]pyridine-3-carboxamide] were, in that order, 0.012 µM and 0.113 µM.
For `Cn1nc(C(=O)NCc2ccc(C#N)cc2)c2c1C(=O)N(CC1(S(=O)(=O)C(C)(C)CN3CCOCC3)CC1)CC2` [Example 61, N-(4-Cyanobenzyl)-1-methyl-6-((1-((2-methyl-1-morpholinopropan-2-yl)sulfonyl)cyclopropyl)methyl)-7-oxo-4,5,6,7-tetrahydro-1H-pyrazolo[3,4-c]pyridine-3-carboxamide], in that order: 0.006 µM and 0.145 µM.
Take `CC1(S(=O)(=O)C2(CN3CCc4c(C(=O)NCc5ccc(Cl)cc5)nn(CCOCCN)c4C3=O)CC2)CC1` [Example 223, 1-(2-(2-Aminoethoxy)ethyl)-N-(4-chlorobenzyl)-6-((1-((1-methylcyclopropyl)sulfonyl)cyclopropyl)methyl)-7-oxo-4,5,6,7-tetrahydro-1H-pyrazolo[3,4-c]pyridine-3-carboxamide]: on CMV-polymerase (setting [1]), half-maximal inhibition (IC50) required 0.005 µM. The EC50 with CMV stood at 0.049 µM.
For `Cn1nc(C(=O)NCc2ccc(C#N)cc2)c2c1C(=O)N(CC1(S(=O)(=O)N3CC[C@@H](O)C3)CC1)CC2` [Example 126, (R)-N-(4-Cyanobenzyl)-6-((1-((3-hydroxypyrrolidin-1-yl)sulfonyl)cyclopropyl)methyl)-1-methyl-7-oxo-4,5,6,7-tetrahydro-1H-pyrazolo[3,4-c]pyridine-3-carboxamide], on CMV-polymerase (setting [2]), the half-inhibitory concentration (IC50) is 0.004 µM. In the assay on CMV, the EC50 was determined as 0.118 µM.
For `Cn1nc(C(=O)NCc2ccc(C#N)cc2)c2c1C(=O)N(CC1(S(=O)(=O)C(C)(C)CNC(=O)CN)CC1)CC2` [Example 74, 6-((1-((1-(2-Aminoacetamido)-2-methylpropan-2-yl)sulfonyl)cyclopropyl)methyl)-N-(4-cyanobenzyl)-1-methyl-7-oxo-4,5,6,7-tetrahydro-1H-pyrazolo[3,4-c]pyridine-3-carboxamide], in that order: 0.003 µM and 0.148 µM.
The like results for `Cn1nc(-c2nc(Cc3ccc(C#N)cc3)no2)c2c1C(=O)N(CC1(S(=O)(=O)C3CC3)CC1)CC2` [Example 27, 4-((5-(6-((1-(Cyclopropylsulfonyl)cyclopropyl)methyl)-1-methyl-7-oxo-4,5,6,7-tetrahydro-1H-pyrazolo[3,4-c]pyridin-3-yl)-1,2,4-oxadiazol-3-yl)methyl)benzonitrile] were, in that order, 0.007 µM and 0.211 µM.
The like results for `CN(CCO)S(=O)(=O)C1(CN2CCc3c(C(=O)NCc4ccc(C#N)cc4)nn(C)c3C2=O)CC1` [Example 146, N-(4-Cyanobenzyl)-6-((1-(N-(2-hydroxyethyl)-N-methylsulfamoyl)cyclopropyl)methyl)-1-methyl-7-oxo-4,5,6,7-tetrahydro-1H-pyrazolo[3,4-c]pyridine-3-carboxamide] were, in that order, 0.003 µM and 0.061 µM.
On to `CN(CCO)S(=O)(=O)C1(CN2CCc3c(C(=O)NCc4ccc(Cl)cc4)nn(C)c3C2=O)CC1` [Example 144, N-(4-Chlorobenzyl)-6-((1-(N-(2-hydroxyethyl)-N-methylsulfamoyl)cyclopropyl)methyl)-1-methyl-7-oxo-4,5,6,7-tetrahydro-1H-pyrazolo[3,4-c]pyridine-3-carboxamide], for which the half-inhibitory concentration (IC50) at CMV-polymerase (setting [2]) turned out to be 0.004 µM. In the assay on CMV, the EC50 turned out to be 0.044 µM.
Turning to `Cn1nc(C(=O)NCc2ccc(C#N)cc2)c2c1C(=O)N(CC1(S(=O)(=O)C3CCOCC3)CC1)CC2` [Example 169, N-(4-Cyanobenzyl)-1-methyl-7-oxo-6-((1-((tetrahydro-2H-pyran-4-yl)sulfonyl)cyclopropyl)methyl)-4,5,6,7-tetrahydro-1H-pyrazolo[3,4-c]pyridine-3-carboxamide], the IC50 at CMV-polymerase (setting [2]) amounted to 0.014 µM. Moreover, the concentration for a half-maximal effect (EC50) in the assay on CMV was 0.201 µM.
`N#Cc1ccc(CNC(=O)c2nn(C3CC3)c3c2CCN(CC2(S(=O)(=O)C4CC4)CC2)C3=O)cc1` [Example 43, N-(4-Cyanobenzyl)-1-cyclopropyl-6-((1-(cyclopropylsulfonyl)cyclopropyl)methyl)-7-oxo-4,5,6,7-tetrahydro-1H-pyrazolo[3,4-c]pyridine-3-carboxamide] gave an IC50 against CMV-polymerase (setting [1]) of 0.002 µM. In addition, in the assay with CMV, the EC50 was 0.066 µM.
In the case of `Cc1cccnc1NS(=O)(=O)C1(CN2CCc3c(C(=O)NCc4ccc(C#N)cc4)nn(C)c3C2=O)CC1` [Example 164, N-(4-Cyanobenzyl)-1-methyl-6-((1-(N-(3-methylpyridin-2-yl)sulfamoyl)cyclopropyl)methyl)-7-oxo-4,5,6,7-tetrahydro-1H-pyrazolo[3,4-c]pyridine-3-carboxamide], the IC50 at CMV-polymerase (setting [2]) came to 0.006 µM. In addition, the half-maximal effective concentration (EC50) in the assay with CMV worked out at 0.157 µM.
`Cn1nc(C(=O)NCc2ccc(Cl)cc2)c2c1C(=O)N(CC1(S(=O)(=O)C(F)F)CC1)CC2` [Example 39, N-(4-Chlorobenzyl)-6-((1-((difluoromethyl)sulfonyl)cyclopropyl)methyl)-1-methyl-7-oxo-4,5,6,7-tetrahydro-1H-pyrazolo[3,4-c]pyridine-3-carboxamide] had an IC50 on CMV-polymerase (setting [1]) of 0.025 µM. Further, the EC50 in the assay with CMV is 0.376 µM.
Turning to `CCS(=O)(=O)C1(CN2CCc3c(C(=O)NCc4ccc(C#N)cc4)nn(CC(C)(C)O)c3C2=O)CC1` [Example 233, N-(4-Cyanobenzyl)-6-((1-(ethylsulfonyl)cyclopropyl)methyl)-1-(2-hydroxy-2-methylpropyl)-7-oxo-4,5,6,7-tetrahydro-1H-pyrazolo[3,4-c]pyridine-3-carboxamide], the 50% inhibitory concentration (IC50) on CMV-polymerase (setting [2]) is 0.002 µM. Further, in the assay on CMV, the 50% effective concentration (EC50) was 0.096 µM.
For `COc1ncccc1NS(=O)(=O)C1(CN2CCc3c(C(=O)NCc4ccc(C#N)cc4)nn(C)c3C2=O)CC1` [Example 162, N-(4-Cyanobenzyl)-6-((1-(N-(2-methoxypyridin-3-yl)sulfamoyl)cyclopropyl)methyl)-1-methyl-7-oxo-4,5,6,7-tetrahydro-1H-pyrazolo[3,4-c]pyridine-3-carboxamide], in that order: 0.001 µM and 0.03 µM.
For `Cn1nc(C(=O)NCc2ccc(C#N)cn2)c2c1C(=O)N(CC1(S(=O)(=O)C3CC3)CC1)CC2` [Example 14, N-((5-Cyanopyridin-2-yl)methyl)-6-((1-(cyclopropylsulfonyl)cyclopropyl)methyl)-1-methyl-7-oxo-4,5,6,7-tetrahydro-1H-pyrazolo[3,4-c]pyridine-3-carboxamide], the IC50 at CMV-polymerase (setting [2]) worked out at 0.095 µM. Also, the concentration giving a half-maximal response (EC50) in the assay with CMV stood at 0.585 µM.
For `Cn1nc(C(=O)NCc2ccc(Cl)cc2)c2c1C(=O)N(CC1(S(=O)(=O)Nc3ccccn3)CC1)CC2` [Example 158, N-(4-Chlorobenzyl)-1-methyl-7-oxo-6-((1-(N-(pyridin-2-yl)sulfamoyl)cyclopropyl)methyl)-4,5,6,7-tetrahydro-1H-pyrazolo[3,4-c]pyridine-3-carboxamide], in that order: 0.003 µM and 0.037 µM.
Turning to `N#Cc1ccc(CNC(=O)c2nn(CCCO)c3c2CCN(CC2(S(=O)(=O)C4CC4)CC2)C3=O)cc1` [Example 236, N-(4-Cyanobenzyl)-6-((1-(cyclopropylsulfonyl)cyclopropyl)methyl)-1-(3-hydroxypropyl)-7-oxo-4,5,6,7-tetrahydro-1H-pyrazolo[3,4-c]pyridine-3-carboxamide], the IC50 on CMV-polymerase (setting [2]) worked out at 0.004 µM. The 50% effective concentration (EC50) in the assay with CMV turned out to be 0.077 µM.
